Results taken from patent publication US7910568B2, “Derivatives of 4- or 5-aminosalicylic acid” (Antibe Therapeutics Inc., priority 2005, dated 2011).

Legend:
Format in all cases: in vivo
[1] = tested on: eNOS mRNA; test: TNBS-induced colitis in mice, colonic eNOS mRNA by RT-PCR; conditions: dose equimolar to 50 mg/kg mesalamine; FIG. 14
Protocol: The same model was used as described above. In this example, the effects of mesalamine (50 mg/kg) were compared to those of equimolar doses of Compound XXXV. In addition to measuring the severity of colitis by measuring disease activity score and MPO activity, tissues were processed for measurement of a number of genes for inflammatory cytokines and other mediators.
In particular, mRNA expression in mice of tumour necrosis factor-alpha (TNF-α), interferon gamma (IFN-γ), colonic interleukin (IL)-1, IL-2, IL-10, IL-12 p40, RANTES, cyclooxygenase (COX)-1, COX-2, constitutive endothelial nitric oxide synthase (eNOS), and inducible NOS (iNOS) was measured as described in Wallace et al. (1999) Gastroenterology 117: 557-566, incorporated herein by reference.
Briefly, reverse transcription-polymerase chain reaction (RT-PCR) was used to detect and quantify mRNA of the particular cytokine/chemokine/enzyme. Glyceraldehyde-3-phosphate dehydrogenase (GAPDH) was used as the “housekeeping gene” for mRNA expression (i.e., as an internal control). For each sample, the ratio of the amplification of the target gene to the amplification of GAPDH (expression of each is measured by performing densitometry on gels) was obtained. […]

[2] = tested on: visceral pain perception in response to colorectal distension; test: Rat model of visceral pain perception, colorectal distension, abdominal withdrawal reflex score
Protocol: A rat model of visceral pain perception, a pre-clinical model of irritable bowel syndrome, was used in the following example. Rats (male, Wistar, 200-250 g, obtained from Charles River, Monza, Italy), were housed in plastic cages and maintained under controlled conditions with 12-hours light/dark cycle with lights on at 7.00 AM. Tap water and standard laboratory chow were freely available. Before experiments, rats were individually trained by spending 2-3 hours per day in a plexiglass cage for 2-3 days. It allowed them to adjust to a movement-restriction environment. Food was withheld for 12 hours before colorectal distension (CRD) recording were performed. Experiments were performed in awake rats and were conducted in a blind manner in that the observer was not aware of the identity of drug administered to each animal.
(§1) In the testing day, rats were sedated with ether inhalation and a 2 cm long latex balloon was inserted intrarectally 2 cm from the anal verge and fixed at the base of the tail. The balloon was connected via a double-barreled cannula to a pressure transducer to continuously monitoring the rectal pressure by a computer (PowerLab PC, A.D. Instruments, Milford, Mass., USA) and to a syringe for inflation/deflation of the balloon. The rats were then housed in a small cage (20×8×8 cm) on an elevated Plexiglas™ platform and allowed to wake up and adapt for 1 hour. After recovery from sedation, animals underwent the CRD procedure and behavioral responses were tested. The night before the experiments, the balloons were inflated and left overnight so the latex stretched and the balloons became compliant.
CRD of 20 seconds, performed every 5 minutes, was applied in increment of 0.4 ml starting from 0.4 ml up to 1.6 ml water. To achieve an accurate measurement of the colonic parameters and perception, the distensions were repeated twice for each intensity and data for each animal were averaged for analysis. Each animal underwent a double set of CRD. Twenty minutes after the first sequence of CRD (0.4 mL-1.6 ml water), drugs were administered intraperitoneally (i.p.) and a second set of CRD was performed. Behavioral responses during the first and the second set of CRD were assessed and compared.
Behavioral response to CRD was assessed by measuring the abdominal withdrawal reflex (AWR) using a semiquantitative score (1).
The effects of mesalamine and Compound XXXV on colonic compliance and sensitivity were determined using a total of 8 fasting rats. To investigate whether the administration of mesalamine and Compound XXXV could revert pain induced by CRD, after the first sequence of CRD, […], after which a second set of CRD was repeated.
All data are presented as the mean±SEM, with sample sizes of 4 rats/group; statistical comparison of paired data was performed by the Wilcoxon signed rank test. An associated probability (p value) of less that 5% was considered significant.

[3] = tested on: colonic smooth muscle; test: Rat colorectal distension, intrarectal pressure / compliance of the colo-rectum; conditions: 100 mg/kg i.p.; FIG. 16(b)
From the text: as §1, with “compliant. CRD of 20 seconds, performed every 5 minutes, was applied in increment of 0.4 ml starting from 0.4 ml up to 1.6 ml water. […] Behavioral responses during the first and the second set of CRD were assessed and compared. To determine the effect of mesalamine or Compound XXXV on colonic smooth muscle, the compliance of the colo-rectum during CRD was obtained from intracolo-rectal volume and pressure and expressed as mL/mmHg. […]” for “compliant.”

Nc1ccc(O)c(C(=O)Oc2ccc(-c3cc(=S)ss3)cc2)c1 [Compound XXXV, 5-Amino-2-hydroxy-benzoic acid 4-(5-thioxo-5H-[1,2]dithiol-3-yl)-phenyl ester]
eNOS mRNA expression [1]: suppressed | Perception score (visceral pain in response to colorectal distension) ([2]; 100 mg/kg i.p., second set of CRD 0.4-1.6 ml, FIG. 15): more effective than mesalamine (and vehicle) in reducing visceral pain | Pain perception score after glibenclamide pretreatment ([2]; 0.8 mL colorectal distention, 100 mg/kg, glibenclamide 10 mg/kg i.p. 30 min before, FIG. 17): reversed by pretreatment with glibenclamide | Pain perception score ([2]; 0.8 mL colorectal distention, 100 mg/kg, FIG. 17): significantly reduced the pain perception | Pain perception score ([2]; equimolar doses: mesalamine 50 mg/kg, Compound XXXV 130 mg/kg, ADT-OH 80 mg/kg, Compound XXVII 100 mg/kg, 4-HTB 50 mg/kg, vs vehicle): significantly reduced pain perception | Intrarectal pressure [3]: successfully reduced intrarectal pressure
